# Entries after “also recorded” stand apart in the source; their conditions may differ.
# Key:
# [1] = test system: nucleotide pools in mammalian cells; assay: Inhibition of nucleotide biosynthesis: incorporation of hypoxanthine, adenine, formate into nucleotide pools of mammalian cells; type: cell-based; details: 1 μg/ml
# [2] = test system: PRPP synthetase; assay: PRPP synthetase activity / PRPP biosynthesis in cell based experiments
# [3] = test system: PRPP synthetase; assay: Direct inhibition of PRPP synthetase in vitro; type: biochemical; details: in vitro studies
# [4] = test system: Normal Human Fibroblasts; assay: Inhibition of fibroblast growth; type: cell-based; details: for inhibition at 0.1 µg/mL / inhibition at 0.2 µg/mL / inhibition at 0.4 µg/mL / inhibition at 1 µg/mL / inhibition at 2 µg/mL: Homo sapiens, Fibroblast
# Experimental: (§1) The inhibition of PRPP biosynthesis by Compound A and analogs supported the claimed use of the compounds as antiproliferative agents, since this inhibition should prevent all de novo and salvage biosynthesis of purine and pyrimidine nucleotides. […] The data from NHEK's is particularly important since it is the overproliferation of these cells that occurs in psoriasis.
# (§2) In these experiments Murine keratinocyte transformed cell line PAPp26 was cultured in Dulbecco's modified Eagle's medium with 10% fetal calf serum at 37° C., 5% CO2. Each well of a 96 well plate was seeded with 2000 cells in 200 μl of each drug dilution in duplicate. A plate was stopped and fixed for each time point, stained with Giemsa and then read in a Titertek plate reader at 650 nm, and the absorbances were calibrated with known cell numbers on control plates. NHEK's were obtained from Clonetics Corporation at the secondary stage. Antiproliferative assays were done as for the murine keratinocytes. Media (KGM) without serum was supplied by Clonetics also. Normal Human Fibroblasts and MDBK cells were grown under the same conditions except that MDBK cells were grown at 41° C.
# [5] = test system: MDBK cells; assay: Inhibition of the growth of MDBK cells; type: cell-based, Bovine; details: for inhibition at 1 µg/mL / inhibition at 2 µg/mL: Bos taurus, MDBK
# Experimental: as §1, §2
# [6] = test system: a number of cell types including the Normal Human Epidermal Keratinocytes; assay: Antiproliferative activity (general statements); type: cell-based; details: in vitro; Compound A at the same concentrations (1 μg/ml)
# [7] = test system: macrophages; assay: LTC4 and PGE2 production and lysosomal enzyme release in macrophages; type: cell-based; details: 1 μg/ml
# [8] = test system: P388 leukemia; assay: Life prolongation assay, P388 leukemia in nude mice; type: in vivo; details: for life prolongation: control survival 15 to 20 days
# Experimental: (§3) The topical antiproliferative activities, along with in vitro antiproliferative activities against human keratinocytes and fibroblasts, provide the biological data in support of the claimed utility:
# The doses used were 240, 120 and 60 mg/kg delivered i.p. once per day for five days.
# [9] = test system: pig skin epidermal basal cells (keratinocytes); assay: UV induced hyperproliferation in pig skin in vivo (topical antiproliferative activity); details: for effect on uv induced hyperproliferation: daily topical application; for LI (labelling index): uv exposed Gel #1 control 20.8, normal 7.6
# Experimental: as §3
# In one experiment, a 20 kg pig was sedated and multiple areas of clipped skin were exposed to uv radiation sufficient to provoke a moderate hyperproliferative response within several days of exposure. On days 0, 1, 2 and 3 replicate irradiated sites were treated topically with Compound A in several vehicles or solvents. Topical preparations included a 2% drug in Gel #1, a combination of isopropyl myristate:Crodamol:ethanol, 1:1:2, or DMSO. The hyperproliferative response of the skin to uv was assessed on day 4 by injecting ^3 H-thymidine intradermally, and, 1 hour later, removing the sites by punch biopsy and processing the samples for autoradiography. Such autoradiographs indicate the number of epidermal cells in S phase synthesizing DNA and this is a common tool used by dermatologists to assess inhibition of proliferation in vivo. A single injection of methotrexate, 4 hours prior to ^3 H-thymidine injection was used as a positive control for inhibition of DNA synthesis. A labelling index, L.I., which is the percent of the total number of epidermal basal cells (keratinocytes) counted showing label incorporation. Four days after exposure to uv, the L.I. of pig skin increased from 7.6% to 20.8% (normal human skin ca. 2%, psoriatic lesions ca. 25%, for comparison).
# [10] = test system: intact pig skin; assay: Labelled thymidine incorporation into intact pig skin; details: in vivo
# [11] = test system: keratinocyte proliferation; assay: Keratinocyte proliferation measured by metaphase arrest with colchicine; type: in vivo, pig
# [12] = Toxicity / genotoxicity
smiles,measurement,setting,value
"NC(=O)c1nnn(Cc2cc(Cl)c(C(=O)c3ccc(Cl)cc3)c(Cl)c2)c1N [Compound A, 5-amino-1-(4-(4-chlorobenzoyl)-3,5-dichlorobenzyl)-1,2,3-triazole-4-carboxamide]",adenine incorporation into nucleotide pools,[1]; mammalian cells,disrupted
same,formate incorporation into nucleotide pools,[1]; mammalian cells,disrupted
same,hypoxanthine incorporation into nucleotide pools,[1]; mammalian cells,disrupted
same,inhibition of nucleotide biosynthesis,[1]; variety of mammalian cells in monolayer culture,efficacy
same,PRPP synthetase activity,[2],dramatically lowered
same,direct inhibition of PRPP synthetase,[3],no direct inhibition of the enzyme occurred
same,"Fibroblast growth, No. of Cells - seeding cells","[4]; 0.1 μg/ml, 2 days, control 10.5 × 10^3",4 × 10^3
same,"Fibroblast growth, No. of Cells - seeding cells","[4]; 0.1 μg/ml, 3 days, control 14 × 10^3",5 × 10^3
same,"Fibroblast growth, No. of Cells - seeding cells","[4]; 0.1 μg/ml, 6 days, control 23 × 10^3",19 × 10^3
same,"Fibroblast growth, No. of Cells - seeding cells","[4]; 0.2 μg/ml, 2 days, control 10.5 × 10^3",5 × 10^3
same,"Fibroblast growth, No. of Cells - seeding cells","[4]; 0.2 μg/ml, 3 days, control 14 × 10^3",2 × 10^3
same,"Fibroblast growth, No. of Cells - seeding cells","[4]; 0.2 μg/ml, 6 days, control 23 × 10^3",16.5 × 10^3
same,"Fibroblast growth, No. of Cells - seeding cells","[4]; 0.4 μg/ml, 2 days, control 10.5 × 10^3",7 × 10^3
same,"Fibroblast growth, No. of Cells - seeding cells","[4]; 0.4 μg/ml, 3 days, control 14 × 10^3",6.5 × 10^3
same,"Fibroblast growth, No. of Cells - seeding cells","[4]; 0.4 μg/ml, 6 days, control 23 × 10^3",13 × 10^3
same,"Fibroblast growth, No. of Cells - seeding cells","[4]; 1.0 μg/ml, 2 days, control 10.5 × 10^3",2 × 10^3
same,"Fibroblast growth, No. of Cells - seeding cells","[4]; 1.0 μg/ml, 3 days, control 14 × 10^3",0
same,"Fibroblast growth, No. of Cells - seeding cells","[4]; 1.0 μg/ml, 6 days, control 23 × 10^3",6 × 10^3
same,"Fibroblast growth, No. of Cells - seeding cells","[4]; 2.0 μg/ml, 2 days, control 10.5 × 10^3",2 × 10^3
same,"Fibroblast growth, No. of Cells - seeding cells","[4]; 2.0 μg/ml, 3 days, control 14 × 10^3",.5 × 10^3
same,"Fibroblast growth, No. of Cells - seeding cells","[4]; 2.0 μg/ml, 6 days, control 23 × 10^3",4 × 10^3
same,inhibition at 0.1 µg/mL,"[4]; 48 h, 0.1 μg/ml, 2 days",62%
same,inhibition at 0.2 µg/mL,"[4]; 48 h, 0.2 μg/ml, 2 days",48%
same,inhibition at 0.4 µg/mL,"[4]; 48 h, 0.4 μg/ml, 2 days",33%
same,inhibition at 1 µg/mL,"[4]; 48 h, 1.0 μg/ml, 2 days",81%
same,inhibition at 2 µg/mL,"[4]; 48 h, 2.0 μg/ml, 2 days",81%
same,inhibition at 0.1 µg/mL,"[4]; 72 h, 0.1 μg/ml, 3 days",64%
same,inhibition at 0.2 µg/mL,"[4]; 72 h, 0.2 μg/ml, 3 days",86%
same,inhibition at 0.4 µg/mL,"[4]; 72 h, 0.4 μg/ml, 3 days",54%
same,inhibition at 1 µg/mL,"[4]; 72 h, 1.0 μg/ml, 3 days",100%
same,inhibition at 2 µg/mL,"[4]; 72 h, 2.0 μg/ml, 3 days",96%
same,inhibition at 0.1 µg/mL,"[4]; 144 h, 0.1 μg/ml, 6 days",18%
same,inhibition at 0.2 µg/mL,"[4]; 144 h, 0.2 μg/ml, 6 days",28%
same,inhibition at 0.4 µg/mL,"[4]; 144 h, 0.4 μg/ml, 6 days",44%
same,inhibition at 1 µg/mL,"[4]; 144 h, 1.0 μg/ml, 6 days",74%
same,inhibition at 2 µg/mL,"[4]; 144 h, 2.0 μg/ml, 6 days",83%
same,inhibition of growth of Normal Human Fibroblasts,[4]; approximately 1.0 μg/ml,substantial inhibition
same,"MDBK growth, # Cells × 10^6 - # Cells Seeded","[5]; 1.0 μg/ml, 1 day, control 1.40",0 × 10^6
same,"MDBK growth, # Cells × 10^6 - # Cells Seeded","[5]; 1.0 μg/ml, 3 days, control 4.86",3.12 × 10^6
same,"MDBK growth, # Cells × 10^6 - # Cells Seeded","[5]; 2.0 μg/ml, 1 day, control 1.40",0 × 10^6
same,"MDBK growth, # Cells × 10^6 - # Cells Seeded","[5]; 2.0 μg/ml, 3 days, control 4.86",0 × 10^6
same,inhibition at 1 µg/mL,"[5]; 24 h, 1.0 μg/ml, 1 day",100%
same,inhibition at 2 µg/mL,"[5]; 24 h, 2.0 μg/ml, 1 day",100%
same,inhibition at 1 µg/mL,"[5]; 72 h, 1.0 μg/ml, 3 days",36%
same,inhibition at 2 µg/mL,"[5]; 72 h, 2.0 μg/ml, 3 days",100%
same,inhibition of growth of MDBK cells,[5]; approximately 1.0 μg/ml,substantial inhibition
same,antiproliferative activity,[6],antiproliferative at the same concentrations
same,inhibition of LTC4 production,[7],inhibit
same,inhibition of PGE2 production,[7],inhibit
same,inhibition of lysosomal enzyme release,[7],inhibit
same,life prolongation,[8]; 60 mg/kg i.p. once per day for five days,127%
same,life prolongation,[8]; 120 mg/kg i.p. once per day for five days,124%
same,life prolongation,[8]; 240 mg/kg i.p. once per day for five days,134%
same,in vivo activity against P388 leukemia,"[8]; 240, 120, 60 mg/kg i.p.",significant in vivo activity
same,minimal effective dose,"[8]; Mus musculus, ip, P388 leukemia, nude mice, read-out: active dose in life prolongation assay",≥ 60 mg/kg/day
same,inhibition of uv induced hyperproliferation in pig skin,"[9]; 2% formulation in Gel #1, topical",inhibits completely
same,effect on uv induced hyperproliferation,[9]; Crodamol,less effective
same,effect on uv induced hyperproliferation,[9]; DMSO,no effect
same,effect on uv induced hyperproliferation,[9]; Gel #1,dramatically reduced the uv induced hyperproliferation
same,topical antiproliferative activity,[9]; effects dependent upon vehicle,active topically as an antiproliferative; also recorded: Topical activity against keratinocyte proliferation has been demonstrated
same,"UV induced hyperproliferation, % Inhibition","[9]; topical, Crodamol",29%
same,Labelled Cells,"[9]; topical, Crodamol, of 963 basal cells counted",165
same,LI (labelling index),"[9]; topical, Crodamol",17.0%
same,"UV induced hyperproliferation, % Inhibition","[9]; topical, DMSO",0%
same,Labelled Cells,"[9]; topical, DMSO, of 744 basal cells counted",150
same,LI (labelling index),"[9]; topical, DMSO",20.1%
same,"UV induced hyperproliferation, % Inhibition","[9]; topical, Gel #1",100%
same,inhibition of proliferation compared with injected methotrexate,"[9]; topical, Gel #1",comparable to that for injected methotrexate
same,Labelled Cells,"[9]; topical, Gel #1, of 1020 basal cells counted",57
same,LI (labelling index),"[9]; topical, Gel #1",5.6%
same,inhibition of labelled thymidine incorporation into intact pig skin,[10],inhibits
same,inhibition of keratinocyte proliferation,[11],inhibits
same,genotoxicity,[12],lack of toxicity or genotoxicity
same,toxicity,[12],lack of toxicity or genotoxicity

# From US5045543A, “5-amino or substituted amino 1,2,3-triazoles useful as antimetastatic agents” (Merck & Co., Inc., priority 1989, dated 1991)
